What was measured:
[1] = human
[2] = human; remark: listed apart in the source
[3] = human, serum
[4] = human, serum; remark: listed apart in the source
[5] = human; remark: listed apart in the source
[6] = human; remark: listed apart in the source
[7] = human; remark: listed apart in the source
[8] = human; remark: listed apart in the source
[9] = Highest frequency of moderate liver toxicity observed during clinical trials, expressed as a percentage. [column '% BIOL' in source]; conditions: human
[10] = human, serum, 4383 h
[11] = Highest frequency of acute liver toxicity observed during clinical trials, expressed as a percentage. [column '% AIGUE' in source]; conditions: human
[12] = human; remark: listed apart in the source
[13] = human; remark: listed apart in the source
[14] = human; remark: listed apart in the source
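Throughout, for Hepatotoxicity (association with vascular disease): count of indexed literature references reporting vascular liver injury in humans, e.g. peliosis hepatitis, hepatic veno-occlusive disease or Budd-Chiari syndrome.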
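Throughout, for Hepatotoxicity (benign tumour): value is a count of indexed literature references citing a benign tumour confirmed by histopathology.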
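Throughout, for Hepatotoxicity (choleostasis): human cholestatic liver injury, shown by histopathology or by peak ALT or AST elevation over alkaline phosphatase ratio below 2, value counts indexed literature reports.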
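Throughout, for Hepatotoxicity (chronic liver disease): chronic liver injury confirmed by histopathology or persistently raised serum aminotransferase activity beyond 6 months, value given as the count of indexed literature references.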
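Throughout, for Hepatotoxicity (cirrhosis): value is a count of indexed literature references reporting cirrhosis confirmed by histopathology.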
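Throughout, for Hepatotoxicity (cytolytic): human cytolytic liver injury, shown by histopathology or by a ratio above 5 of peak ALT or AST elevation to alkaline phosphatase elevation, value counts indexed references.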
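Throughout, for Hepatotoxicity (granulomatous hepatitis): value is a count of indexed literature references reporting granulomatous liver disease confirmed by histopathology.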
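Throughout, for Hepatotoxicity (malignant tumour): malignant tumour confirmed by histopathology, value gives the count of indexed literature references reporting it.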
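Throughout, for Hepatotoxicity (severe hepatitis): human clinical data: severe hepatitis, meaning potentially life-threatening liver failure or clinically observed cases, the value counts how many indexed literature references report it.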
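Throughout, for Hepatotoxicity (steatosis): steatosis confirmed by histopathology, value is the count of indexed references.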

Structure (SMILES)	Hepatotoxicity (cytolytic) [1]	Hepatotoxicity (association with vascular disease) [2]	Hepatotoxicity (moderate) [3]	Hepatotoxicity (acute) [4]	Hepatotoxicity (benign tumour) [5]	Hepatotoxicity (steatosis) [6]	Hepatotoxicity (malignant tumour) [7]	Hepatotoxicity (severe hepatitis) [8]	Hepatotoxicity (moderate) [9]	Hepatotoxicity (chronic liver disease) [10]	Hepatotoxicity (acute) [11]	Hepatotoxicity (choleostasis) [12]	Hepatotoxicity (cirrhosis) [13]	Hepatotoxicity (granulomatous hepatitis) [14]	Hepatotoxicity (cytolytic) ([1]; Liver)	Hepatotoxicity (severe hepatitis) ([8]; Liver)	Hepatotoxicity (moderate) ([9]; Liver)	Hepatotoxicity (acute) ([11]; Liver)	Hepatotoxicity (choleostasis) ([12]; Liver)	Hepatotoxicity (granulomatous hepatitis) ([14]; Liver)
CC(C)(Oc1ccc(Cl)cc1)C(=O)NC(=O)NCN1CCOCC1 [PLAFIBRIDE]	0	0	1	0	0	0	0	0	20%	0	0%	0	0	0						
CN1C(CSCC(F)(F)F)Nc2cc(Cl)c(S(N)(=O)=O)cc2S1(=O)=O (centres undefined) [POLYTHIAZIDE]	1	0	0	1	0	0	0	0	0%	0	0%	1	0	0						
CCCN[C@H]1CCc2nc(N)sc2C1 [PRAMIPEXOLE]		0	1	0	0	0	0			0			0		0	0	7.1%	0%	0	0
COc1cc2nc(N3CCN(C(=O)c4ccco4)CC3)nc(N)c2cc1OC [PRAZOSIN]	0	0	0	1	0	0	0			0		1	0	0		0	0%	0.2%		
CC(C)(Sc1cc(C(C)(C)C)c(O)c(C(C)(C)C)c1)Sc1cc(C(C)(C)C)c(O)c(C(C)(C)C)c1 [PROBUCOL]	0	0	2	0	0	0	0	0	0%	0	0%	0	0	0						
CC(CN1c2ccccc2Sc2ccccc21)N(C)C (centres undefined) [PROMETHAZINE]	0	0	0	2	0	0	0	0	0%	0	0%	0	0	0						
CCN(CC)CC(=O)Oc1ccc(NC(C)=O)cc1 [PROPACETAMOL]	0	0	1	0	0	0	0	0	2.1%	0	0%	0	0	0						
Cc1ccc2c(-c3ccccc3)nc(=O)n(C(C)C)c2c1 [PROQUAZONE]	0	0	1	0	0	0	0	0	1.8%	0	0%	0	0	0						
COCCCN1CCC(NC(=O)c2cc(Cl)c(N)c3c2OCC3)CC1 [PRUCALOPRIDE]	0	0	1	0	0	0	0	0	5.9%	0	0%	0	0	0						
Cc1oc(=O)oc1CN1CCN(c2cc3c(cc2F)c(=O)c(C(=O)O)c2n3C(C)S2)CC1 (centres undefined) [PRULIFLOXACIN]	0	0	25	0	0	0	0	0	33.3%	0	0%	0	0	0						
COC(=O)c1nc2cc(Cl)c3cccnc3c2o1 [QUAZOLAST]	0	0	1	0	0	0	0	0	13%	0	0%	0	0	0						

Reference: ChEMBL document CHEMBL3137667, “[Drug-induced liver injury; fourteenth updated edition of the bibliographic database of liver injuries and related drugs]” (Gastroenterol Clin Biol, 2004)
